The values that follow come from patent publication US20260335305A1, “METHODS OF USING ITRACONAZOLE DRY POWDERS” (Pulmatrix Operating Company, Inc., priority 2022, published 2026).

For data set [1] the following is noted: cited from earlier work; for AUC0-24 h / Accumulation ratio AUC0-24 h / Accumulation ratio Cmax / Cmax / Kel / Tmax: inhaled Formulation I.
A further data set has as its system CYP3A4. Conditions: role: inhibitor; unbound Ki, Simcyp V19 file; cited from earlier work.
The conditions of data set [2]: cited from earlier work; for RB / fu: Simcyp V19 file.
Data set [3] in a line: Itraconazole subparticle size of milled suspension. Format: physicochemical. The following applies: water and polysorbate 80, milled at 1800 rpm for one hour. The procedure: Particle Size Reduction using Low Energy Wet Milling. One technique for reducing the particle size of the itraconazole was via low energy wet milling (also known as roller milling, or jar milling). Suspensions of the itraconazole were prepared in an anti-solvent, which can be water, or any solvent in which the active agent is not appreciably soluble. Stabilizers, which can be, but are not limited to, non-ionic surfactants or amphiphilic polymers, are then added to the suspension along with milling media, which can be, but are not limited to, spherical with high wear resistance and in the size range from 0.03 to 0.70 millimeters in diameter. The vessels containing the suspensions are then rotated using a jar mill (US Stoneware, East Palestine, OH USA) while taking samples periodically to assess particle size (LA-950, HORIBA, Kyoto, Japan).
Particle Size Reduction using High Energy Wet Milling: Another technique for reducing the particle size of the itraconazole was via high-energy wet milling using a rotor-stator, or agitated media mill. Suspensions of the itraconazole were prepared in an anti-solvent, which can be water, or any solvent in which the active agent is not appreciably soluble. […]

For data set [4] the following is noted: single inhaled dose of 20 mg of dry powder; cited from earlier work.
[5] abbreviates: Day 1, 35 mg inhaled Formulation I QD.
The mark [6] stands for this setting: Day 14, 35 mg inhaled Formulation I QD.

Where two headings read alike, the source gives them in different places.

On to `CC(O)C(C)n1ncn(-c2ccc(N3CCN(c4ccc(OCC5COC(Cn6cncn6)(c6ccc(Cl)cc6Cl)O5)cc4)CC3)cc2)c1=O` (centres unmarked) [OH-itraconazole], for which, in data set [1] (setting [5]), the “AUC0-24 h, observed mean” value was 38.2 ng·h/mL and the “Cmax, observed mean” value was 2.10 ng/mL. In data set [1] (setting [6]), the “AUC0-24 h, observed mean” value was 168 ng·h/mL and the “Cmax, observed mean” value is given as 8.68 ng/mL. Also, in data set [1] (10 mg), the AUC0-24 h is 42.4 (26.1) ng h/mL, the “Accumulation ratio AUC0-24 h” value is 3.8, the “Accumulation ratio Cmax” value is listed as 3.5 and the Cmax is on record as 2.25 (25.3) ng/mL. Further, in data set [1] (10 mg), the Kel was 0.0263 h⁻¹ and the Tmax (in general, the time at which the peak concentration occurs) was 6 h. Further, in data set [1] (20 mg), the AUC0-24 h is listed as 128 (56.1) ng h/mL, the “Accumulation ratio AUC0-24 h” value is recorded as 4.4, the “Accumulation ratio Cmax” value is recorded as 4.2 and the Cmax is 6.43 (54.7) ng/mL. Moreover, in data set [1] (20 mg), the Kel is 0.0223 h⁻¹ and the Tmax is on record as 6 h. Besides, in data set [1] (35 mg QD for 14 days), the AUC0-24 h is given as 169 (116) ng h/mL, the “Accumulation ratio AUC0-24 h” value was 4.5, the “Accumulation ratio Cmax” value is 4.2 and the Cmax is on record as 8.68 (91.0) ng/mL. Also, in data set [1] (35 mg QD for 14 days), the Kel is 0.0248 h⁻¹ and the Tmax is on record as 8 h. The “Ki, u, ITZ” value with CYP3A4 is 2.3 nM. Moreover, in data set [2], the RB is given as 0.58 and the fu is 0.016.

Consider `CCC(C)n1ncn(-c2ccc(N3CCN(c4ccc(OCC5COC(Cn6cncn6)(c6ccc(Cl)cc6Cl)O5)cc4)CC3)cc2)c1=O` (centres unmarked) [Itraconazole, itraconazole], for which, in data set [1] (setting [5]), the “AUC0-24 h, observed mean” value was […] and the “Cmax, observed mean” value is given as 5.23 ng/mL. In data set [1] (setting [6]), the “AUC0-24 h, observed mean” value was […] and the “Cmax, observed mean” value is listed as 15.2 ng/mL. Besides, in data set [1] (10 mg), the AUC0-24 h was […], the “Accumulation ratio AUC0-24 h” value is recorded as […], the “Accumulation ratio Cmax” value is given as […] and the Cmax is reported as […]. In addition, in data set [1] (10 mg), the Kel is […] and the time of peak concentration (Tmax) is on record as […]. Moreover, in data set [1] (20 mg), the AUC0-24 h is given as […], the “Accumulation ratio AUC0-24 h” value is recorded as […], the “Accumulation ratio Cmax” value is […] and the Cmax is […]. For the same molecule, in data set [1] (20 mg), the Kel is […] and the Tmax is reported as […]. In data set [1] (35 mg QD for 14 days), the AUC0-24 h is reported as […], the “Accumulation ratio AUC0-24 h” value is listed as […], the “Accumulation ratio Cmax” value is […] and the Cmax is given as 15.2 (49.3) ng/mL. Moreover, in data set [1] (35 mg QD for 14 days), the Kel is […] and the time to peak (Tmax) is on record as […]. The “final median particle size (Dv(50)) of the milled suspension” value in data set [3] was […]. The “Ki, u, ITZ” value with CYP3A4 was […]. The lung exposure entry in data set [4] was “lung exposures that would be considered therapeutic”. In addition, in data set [2], the RB is […] and the fu is […].

With `Cc1ncc2n1-c1ccc(Cl)cc1C(c1ccccc1F)=NC2` [Midazolam, midazolam], in data set [2] (Simcyp V19 Midazolam File), the fm is listed as 0.84.
